# Experimental data as given in patent publication US20070026090A1, “Treatment and prevention of inflammatory disease and mitochondrial dysfunction with high dose selenium” (priority 2003, published 2007).
# Tests used:
# cytochrome c mRNA = experiment: Cytochrome c mRNA in colon tissue (RT-PCR); type: in vivo, rat; conditions: 24 h after TNBS; supplemented (FIG. 7A lane 4)
# MnSOD = MnSOD transcription and expression (RTPCR, Western blot); type: cell-based, murine
# Method: Cell culture: Murine J774.2 macrophages (kindly provided by Prof. Dov Zipori from the Weizmann Institute of Science) were grown in RPMI medium supplemented with 10% (w/v) fetal calf serum, penicillin (100 U/ml), streptomycin (100 μg/ml) and 1× glutamine at 37° C. in a humidified atmosphere consisting of 95% air and 5% CO2. Experiments were performed on cells at 60% confluence.
# (§1) Western blots (Sp1, MnSOD, UCP2): Cells were grown in six-well tissue culture plates, treated with selenium for 72 h and activated with LPS and IFN-γ for 24 h. The wells were washed with PBS, scraped and centrifuged
# (§2) (5 min. 2000 RPM), and lysed by addition of boiling hot lysis buffer (1% SDS, 1 mM sodium ortho-vanadate, 10 mM Tris pH 7.4) to the pellets. Protein content was measured (BIO RAD protein assay kit) and equalized. Sample buffer (containg SDS) was added and the samples were boiled. The samples were subjected to SDS-PAGE followed by western blot analysis. Separated proteins were transferred electrophoretically from the gel to a nitrocellulose membrane (Amersham International plc, Buckinghamshire, ENGLAND). The membrane was blocked in TBS (0.15 M NaCl/10 mM Tris/HCl, pH7.4) containing 5% (v/v) skimmed milk (Blotto), then incubated over night with primary antibodies at RT (diluted 1/2000 in blotto). After being washed six times in TBST [TBS containing 0.05% (v/v) Tween 20], the membrane was incubated for 2 h at room temperature with secondary antibody (diluted 1/5000 in blotto). Immunoreactive bands were detected with ECL western blotting detection reagents (Amersham Pharmacia Biotech, Buckingammshire England) and developed on film (Fuji super RX, Dusseldorf, Germany). […]
# Right (antisense) 5′[…]-3′ (SEQ ID NO: 6) corresponding to nucleotides 622 to 640 of mouse mRNA region (GenBank Accession No. NM 013671). […] Actual PCR product was approximately 570 bp, measured on 1.25% agarose gel in TAE containing ethidium bromide.
# PCR was performed with 28 cycles (25 cycles for GAPDH) of 30 seconds at 96° C., 30 seconds at 58° C. and 1 min at 72° C. RTPCR products were analyzed on 1.3% (w/v) agarose gels.
# Sp1 [1] = experiment: Sp1 binding in vitro, selenite added to nuclear extract (EMSA); parameters: species or system murine; conditions: 5 μM added to nuclear extract 5 minutes before (FIG. 13C)
# Method: Nuclear extracts: Nuclear Extracts were prepared using a slight modification of the method of Dignam et al (23). Treated cells were washed with cold PBS, scraped and centrifuged. Hypotonic buffer (1 ml, 20 mM HEPES pH 7.0, 10 mM KCl, 1 mM mGCl2, 0.5 mM DTT, 0.1% Triton X-100, 20% glycerol, 2 mM PMSP, 1 mg/ml Aprotonin and Leupeptin) was added to the cell pellets, the pellets were disrupted by pipetting, and centrifuged 3000 RPM for 5 min. The pellets were re-suspended in 100 μl cold extraction buffer (20 mM HEPES pH 7.0, 10 mM KCl, 1 mM mGCl2, 0.5 mM DTT, 0.1% Triton X-100, 20% glycerol, 2 mM PMSF, 1 mg/ml Aprotonin and Leupeptin, 420 mM NaCl). The samples were rotated for 20 min at 4° C., centrifuged 15,000 RPM for 10 min, and supernatants collected. Protein content was measured using Bradford reagent. Samples were stored frozen at minus 70° C.
# Electromobility shift assay (EMSA)—Gel shift assays were performed according to the gel shift assay protocol from Promega Corp. (San Luis Obispo, Calif.). A 22-mer double-stranded NF-κB consensus oligonucleotide 5′-[…]-3′ (SEQ ID NO:3), and Sp1 consensus oligonucleotide 5′-[…]-3(SEQ ID NO:4), were labeled with 32P. […]
# Sp1 [2] = experiment: Sp1 protein (Western blot); type: cell-based, murine; conditions: FIG. 13B
# Method: as §1, §2
structure (smiles),measurement,setting,value
[Se] [selenium],effect of TNBS-induced colitis on cytochrome c mRNA levels,cytochrome c mRNA,completely prevented
same,lowest concentration effective in significantly reducing MnSOD transcripts and protein,"MnSOD; 24 and 72 hours, resting J774.2 (FIG. 9A, 9B)",0.5 µM
same,"MnSOD expression, activated macrophages","MnSOD; exposure (72 hours) prior to activation, concentration dependent (FIG. 11)",decreased
same,Sp-1 binding in vitro,Sp1 [1],directly inhibited
same,Sp-1 gene expression / synthesis (Western blot),Sp1 [2],no change
